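Each compound was tested at five concentrations against cells in 96-well plates for 48 hours. GI50 is the concentration that inhibits growth by half.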 Activity calls are given as the source filed them. Cut-off read from the data, not from the text of the source: active = GI50 up to about 1.1 µM and inactive = higher.
Key:
Assay in all cases: inhibition of tumour cell growth, NCI panel, 48 h
786-0 = tested on: 786-0
A498 = tested on: A498
A549 = tested on: A549
ACHN = tested on: ACHN
CAKI-1 = tested on: CAKI-1
CCRF-CEM = tested on: CCRF-CEM
COLO 205 = tested on: COLO 205
DLD-1 = tested on: DLD-1
DMS-273 = tested on: DMS-273
EKVX = tested on: EKVX
HCC 2998 = tested on: HCC 2998
HCT-15 = tested on: HCT-15
HOP-18 = tested on: HOP-18
HOP-62 = tested on: HOP-62
HOP-92 = tested on: HOP-92
HT-29 = tested on: HT-29
IGROV-1 = tested on: IGROV-1
K562 = tested on: K562
KM-20L2 = tested on: KM-20L2
KM12 = tested on: KM12
LOX IMVI = tested on: LOX IMVI
LXFL 529 = tested on: LXFL 529
M14 = tested on: M14
MOLT-4 = tested on: MOLT-4
Malme-3M = tested on: Malme-3M
NCI-H226 = tested on: NCI-H226
NCI-H23 = tested on: NCI-H23
NCI-H460 = tested on: NCI-H460
NCI-H522 = tested on: NCI-H522
OVCAR-3 = tested on: OVCAR-3
OVCAR-4 = tested on: OVCAR-4
OVCAR-5 = tested on: OVCAR-5
OVCAR-8 = tested on: OVCAR-8
RXF 393 = tested on: RXF 393
SF-268 = tested on: SF-268
SF-295 = tested on: SF-295
SF-539 = tested on: SF-539
SK-MEL-28 = tested on: SK-MEL-28
SK-MEL-2 = tested on: SK-MEL-2
SK-MEL-5 = tested on: SK-MEL-5
SK-OV-3 = tested on: SK-OV-3
SN12C = tested on: SN12C
SNB-75 = tested on: SNB-75
SNB-78 = tested on: SNB-78
SR = tested on: SR
SW-620 = tested on: SW-620
TK-10 = tested on: TK-10
U-251 = tested on: U-251
UACC-257 = tested on: UACC-257
UACC-62 = tested on: UACC-62
UO-31 = tested on: UO-31
BT-549 = tested on: BT-549
DMS-114 = tested on: DMS-114
DU-145 = tested on: DU-145
HCT-116 = tested on: HCT-116
HL-60 = tested on: HL-60
M19-MEL = tested on: M19-MEL
MCF7 = tested on: MCF7
MDA-MB-231 = tested on: MDA-MB-231
MDA-MB-435 = tested on: MDA-MB-435
NCI/ADR-RES = tested on: NCI/ADR-RES
PC-3 = tested on: PC-3
RPMI-8226 = tested on: RPMI-8226
SNB-19 = tested on: SNB-19
XF498 = tested on: XF498

COc1cc(Nc2nc3ccc(C(F)(F)F)cc3nc2-c2ccccc2)cc(OC)c1OC
GI50 (786-0): 31 µM (inactive)
GI50 (A498): 24.5 µM (inactive)
GI50 (A549): 23.8 µM (inactive)
GI50 (ACHN): 9.1 µM (inactive)
GI50 (CAKI-1): 18.8 µM (inactive)
GI50 (CCRF-CEM): 8.11 µM (inactive)
GI50 (COLO 205): > 10 µM (inactive)
GI50 (DLD-1): 6.73 µM (inactive)
GI50 (DMS-273): 12 µM (inactive)
GI50 (EKVX): 18.2 µM (inactive)
GI50 (HCC 2998): 4.23 µM (inactive)
GI50 (HCT-15): 4.41 µM
GI50 (HOP-18): < 0.01 µM (active)
GI50 (HOP-62): > 100 µM (inactive)
GI50 (HOP-92): 0.991 µM (active)
GI50 (HT-29): 1.98 µM (inactive)
GI50 (IGROV-1): > 100 µM (inactive)
GI50 (K562): 5.56 µM (inactive)
GI50 (KM-20L2): 5.85 µM (inactive)
GI50 (KM12): 9.38 µM (inactive)
GI50 (LOX IMVI): 4.32 µM (inactive)
GI50 (LXFL 529): 23.1 µM (inactive)
GI50 (M14): 9.93 µM (inactive)
GI50 (MOLT-4): 8.41 µM (inactive)
GI50 (Malme-3M): 37 µM (inactive)
GI50 (NCI-H226): 7.66 µM (inactive)
GI50 (NCI-H23): 67.5 µM (inactive)
GI50 (NCI-H460): 4.82 µM (inactive)
GI50 (NCI-H522): 27.8 µM (inactive)
GI50 (OVCAR-3): 40.6 µM (inactive)
GI50 (OVCAR-4): 51.4 µM (inactive)
GI50 (OVCAR-5): 20.7 µM (inactive)
GI50 (OVCAR-8): 28.2 µM (inactive)
GI50 (RXF 393): 30 µM (inactive)
GI50 (SF-268): 5.75 µM (inactive)
GI50 (SF-295): 3.05 µM (inactive)
GI50 (SF-539): 25.2 µM (inactive)
GI50 (SK-MEL-28): 40.8 µM (inactive)
GI50 (SK-MEL-2): 21.9 µM (inactive)
GI50 (SK-MEL-5): 16.4 µM (inactive)
GI50 (SK-OV-3): > 100 µM (inactive)
GI50 (SN12C): 18.7 µM (inactive)
GI50 (SNB-75): > 100 µM (inactive)
GI50 (SNB-78): > 100 µM (inactive)
GI50 (SR): 8.3 µM (inactive)
GI50 (SW-620): 85.3 µM (inactive)
GI50 (TK-10): > 100 µM (inactive)
GI50 (U-251): 32.7 µM (inactive)
GI50 (UACC-257): 16.1 µM (inactive)
GI50 (UACC-62): 36.2 µM (inactive)
GI50 (UO-31): 10 µM (inactive)

CCOC(=O)c1ccc(N[C@@H]2c3cc4c(cc3C(c3cc(OC)c(O)c(OC)c3)[C@H]3C(=O)OCC32)OCO4)cc1 (some centres undefined)
GI50 (A498): 0.244 µM (active)
GI50 (A549): 0.0413 µM (active)
GI50 (ACHN): 0.131 µM (active)
GI50 (BT-549): 1.64 µM (inactive)
GI50 (CAKI-1): 0.251 µM (active)
GI50 (CCRF-CEM): 0.0818 µM (active)
GI50 (COLO 205): 3.15 µM (inactive)
GI50 (DLD-1): 1.44 µM (inactive)
GI50 (DMS-114): 0.56 µM (active)
GI50 (DU-145): 0.258 µM (active)
GI50 (EKVX): 1.77 µM (inactive)
GI50 (HCC 2998): 1.22 µM (inactive)
GI50 (HCT-116): 1.17 µM (inactive)
GI50 (HCT-15): 0.379 µM
GI50 (HL-60): 0.0912 µM (active)
GI50 (HOP-92): 1.1 µM (active)
GI50 (HT-29): 1.94 µM (inactive)
GI50 (IGROV-1): 3.27 µM (inactive)
GI50 (KM-20L2): 0.713 µM (active)
GI50 (KM12): 1.5 µM (inactive)
GI50 (LXFL 529): 4.55 µM (inactive)
GI50 (M14): 0.679 µM (active)
GI50 (M19-MEL): 1.75 µM (inactive)
GI50 (MCF7): 0.105 µM (active)
GI50 (MDA-MB-231): 1.67 µM (inactive)
GI50 (MDA-MB-435): 3.07 µM (inactive)
GI50 (MOLT-4): 0.0142 µM (active)
GI50 (Malme-3M): 0.568 µM (active)
GI50 (NCI-H226): 0.284 µM (active)
GI50 (NCI-H23): 0.339 µM (active)
GI50 (NCI-H460): 0.0255 µM (active)
GI50 (NCI/ADR-RES): 1.42 µM (inactive)
GI50 (OVCAR-3): 2.85 µM (inactive)
GI50 (OVCAR-4): 4.21 µM (inactive)
GI50 (OVCAR-5): 1.56 µM (inactive)
GI50 (OVCAR-8): 0.708 µM (active)
GI50 (PC-3): 1.61 µM (inactive)
GI50 (RPMI-8226): 0.145 µM (active)
GI50 (SF-268): 0.771 µM (active)
GI50 (SF-539): 0.421 µM (active)
GI50 (SK-MEL-28): 2.55 µM (inactive)
GI50 (SK-MEL-2): 2.63 µM (inactive)
GI50 (SK-MEL-5): 0.505 µM (active)
GI50 (SK-OV-3): 0.955 µM (active)
GI50 (SN12C): 0.396 µM (active)
GI50 (SNB-19): 0.36 µM (active)
GI50 (SNB-75): 1.21 µM (inactive)
GI50 (SNB-78): 4.1 µM (inactive)
GI50 (SR): 0.0474 µM (active)
GI50 (SW-620): 0.475 µM (active)
GI50 (U-251): 0.249 µM (active)
GI50 (UACC-257): 3.57 µM (inactive)
GI50 (UACC-62): 0.521 µM (active)
GI50 (UO-31): 0.769 µM (active)
GI50 (XF498): 0.726 µM (active)

Cc1ccc(S(=O)(=O)c2c3nc4ccccc4nc3n3c2[nH]c2ccccc23)cc1
GI50 (786-0): > 100 µM (inactive)
GI50 (A498): 18.7 µM (inactive)
GI50 (A549): > 100 µM (inactive)
GI50 (ACHN): > 100 µM (inactive)
GI50 (CAKI-1): > 100 µM (inactive)
GI50 (CCRF-CEM): > 100 µM (inactive)
GI50 (COLO 205): > 100 µM (inactive)
GI50 (DLD-1): > 100 µM (inactive)
GI50 (DMS-114): > 100 µM (inactive)
GI50 (DMS-273): 88.7 µM (inactive)
GI50 (EKVX): > 100 µM (inactive)
GI50 (HCC 2998): > 100 µM (inactive)
GI50 (HCT-116): > 100 µM (inactive)
GI50 (HCT-15): > 100 µM
GI50 (HL-60): > 100 µM (inactive)
GI50 (HOP-62): > 100 µM (inactive)
GI50 (HOP-92): > 100 µM (inactive)
GI50 (IGROV-1): 8.13 µM (inactive)
GI50 (K562): > 100 µM (inactive)
GI50 (KM-20L2): > 100 µM (inactive)
GI50 (KM12): 58.1 µM (inactive)
GI50 (LOX IMVI): > 100 µM (inactive)
GI50 (LXFL 529): > 100 µM (inactive)
GI50 (M14): > 100 µM (inactive)
GI50 (M19-MEL): > 100 µM (inactive)
GI50 (MOLT-4): > 100 µM (inactive)
GI50 (Malme-3M): > 100 µM (inactive)
GI50 (NCI-H23): > 100 µM (inactive)
GI50 (NCI-H460): > 100 µM (inactive)
GI50 (NCI-H522): > 100 µM (inactive)
GI50 (OVCAR-3): > 100 µM (inactive)
GI50 (OVCAR-4): > 100 µM (inactive)
GI50 (OVCAR-5): > 100 µM (inactive)
GI50 (OVCAR-8): > 100 µM (inactive)
GI50 (RPMI-8226): > 100 µM (inactive)
GI50 (SF-268): > 100 µM (inactive)
GI50 (SF-539): > 100 µM (inactive)
GI50 (SK-MEL-28): > 100 µM (inactive)
GI50 (SK-MEL-2): > 100 µM (inactive)
GI50 (SK-MEL-5): > 100 µM (inactive)
GI50 (SK-OV-3): > 100 µM (inactive)
GI50 (SN12C): > 100 µM (inactive)
GI50 (SNB-19): > 100 µM (inactive)
GI50 (SNB-75): > 100 µM (inactive)
GI50 (SNB-78): > 100 µM (inactive)
GI50 (SR): > 100 µM (inactive)
GI50 (SW-620): > 100 µM (inactive)
GI50 (TK-10): > 100 µM (inactive)
GI50 (U-251): > 100 µM (inactive)
GI50 (UACC-257): > 100 µM (inactive)
GI50 (UACC-62): 25.7 µM (inactive)
GI50 (UO-31): > 100 µM (inactive)
GI50 (XF498): > 100 µM (inactive)

Source: ChEMBL document CHEMBL1201862, “PubChem BioAssay data set” (2004)
